Results as given in ChEMBL document CHEMBL1201862, “PubChem BioAssay data set” (2004).
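48-hour exposure; five concentrations; linearly interpolated endpoints. Here, GI50 denotes the concentration required for 50% inhibition of growth.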 The source made the active and inactive calls. No stated cut-off is given here; in the data, active = GI50 up to about 1.1 µM and inactive = higher.

Assays:
Test in all cases: DTP human tumour cell line panel, 48 h
LOX IMVI = test system: LOX IMVI
LXFL 529 = test system: LXFL 529
CCRF-CEM = test system: CCRF-CEM
ACHN = test system: ACHN
UO-31 = test system: UO-31
TK-10 = test system: TK-10
DMS-273 = test system: DMS-273
NCI-H522 = test system: NCI-H522
SR = test system: SR
UACC-257 = test system: UACC-257
DMS-114 = test system: DMS-114
SK-MEL-2 = test system: SK-MEL-2
RPMI-8226 = test system: RPMI-8226
NCI-H460 = test system: NCI-H460
KM-20L2 = test system: KM-20L2
MOLT-4 = test system: MOLT-4
SNB-19 = test system: SNB-19
OVCAR-4 = test system: OVCAR-4
SK-MEL-5 = test system: SK-MEL-5
HT-29 = test system: HT-29
SNB-75 = test system: SNB-75
U-251 = test system: U-251
NCI-H226 = test system: NCI-H226
OVCAR-8 = test system: OVCAR-8
HL-60 = test system: HL-60
COLO 205 = test system: COLO 205
786-0 = test system: 786-0
SK-OV-3 = test system: SK-OV-3
K562 = test system: K562
HCT-15 = test system: HCT-15
EKVX = test system: EKVX
DLD-1 = test system: DLD-1
SF-268 = test system: SF-268
IGROV-1 = test system: IGROV-1
A498 = test system: A498
SN12C = test system: SN12C
A549 = test system: A549
SNB-78 = test system: SNB-78
HOP-92 = test system: HOP-92
OVCAR-3 = test system: OVCAR-3
SK-MEL-28 = test system: SK-MEL-28
HCT-116 = test system: HCT-116
KM12 = test system: KM12
HOP-62 = test system: HOP-62
SF-539 = test system: SF-539
SF-295 = test system: SF-295
HCC 2998 = test system: HCC 2998
UACC-62 = test system: UACC-62
SW-620 = test system: SW-620
HOP-18 = test system: HOP-18
NCI-H23 = test system: NCI-H23
CAKI-1 = test system: CAKI-1
OVCAR-5 = test system: OVCAR-5
Malme-3M = test system: Malme-3M
RXF 393 = test system: RXF 393
M14 = test system: M14
M19-MEL = test system: M19-MEL

CC(C)CC(NC(=O)c1cccc(O)c1O)C(=O)NCc1cc(CNC(=O)C(CC(C)C)NC(=O)c2cccc(O)c2O)cc(CNC(=O)C(CC(C)C)NC(=O)c2cccc(O)c2O)c1 (stereo unspecified)
GI50 (LOX IMVI): 8.63 µM (inactive) | GI50 (LXFL 529): 2.82 µM (inactive) | GI50 (CCRF-CEM): 4.91 µM (inactive) | GI50 (ACHN): 22.2 µM (inactive) | GI50 (UO-31): 12.3 µM (inactive) | GI50 (TK-10): 16.2 µM (inactive) | GI50 (DMS-273): 15.6 µM (inactive) | GI50 (NCI-H522): 3.92 µM (inactive) | GI50 (SR): 8.36 µM (inactive) | GI50 (UACC-257): 20.1 µM (inactive) | GI50 (DMS-114): 5.13 µM (inactive) | GI50 (SK-MEL-2): 7.05 µM (inactive) | GI50 (RPMI-8226): 4.14 µM (inactive) | GI50 (NCI-H460): 14 µM (inactive) | GI50 (KM-20L2): 7.11 µM (inactive) | GI50 (MOLT-4): 11.4 µM (inactive) | GI50 (SNB-19): 13.6 µM (inactive) | GI50 (OVCAR-4): 13.9 µM (inactive) | GI50 (SK-MEL-5): 12.8 µM (inactive) | GI50 (HT-29): 13.3 µM (inactive) | GI50 (SNB-75): 20.6 µM (inactive) | GI50 (U-251): 11.1 µM (inactive) | GI50 (NCI-H226): 14.7 µM (inactive) | GI50 (OVCAR-8): 40.6 µM (inactive) | GI50 (HL-60): 4.34 µM (inactive) | GI50 (COLO 205): 16.6 µM (inactive) | GI50 (786-0): 42 µM (inactive) | GI50 (SK-OV-3): 9.44 µM (inactive) | GI50 (K562): 18.9 µM (inactive) | GI50 (HCT-15): 23.1 µM | GI50 (EKVX): 12.6 µM (inactive) | GI50 (DLD-1): 20.9 µM (inactive) | GI50 (SF-268): 8.13 µM (inactive) | GI50 (IGROV-1): 5.66 µM (inactive) | GI50 (A498): 24.8 µM (inactive) | GI50 (SN12C): 12.8 µM (inactive) | GI50 (A549): 18.6 µM (inactive) | GI50 (SNB-78): 29.1 µM (inactive) | GI50 (HOP-92): 14.6 µM (inactive) | GI50 (OVCAR-3): 4.33 µM (inactive) | GI50 (SK-MEL-28): 13.7 µM (inactive) | GI50 (HCT-116): 15.9 µM (inactive) | GI50 (KM12): 13.8 µM (inactive) | GI50 (HOP-62): 15 µM (inactive) | GI50 (SF-539): 5.47 µM (inactive) | GI50 (SF-295): 15.5 µM (inactive) | GI50 (HCC 2998): 7.8 µM (inactive) | GI50 (UACC-62): 4.49 µM (inactive) | GI50 (SW-620): 17.2 µM (inactive) | GI50 (HOP-18): 24 µM (inactive) | GI50 (NCI-H23): 15.6 µM (inactive) | GI50 (CAKI-1): 46.3 µM (inactive) | GI50 (OVCAR-5): 10.8 µM (inactive) | GI50 (Malme-3M): 19.6 µM (inactive)

CCOC(=O)CNC(=O)C(CSC(=O)N(C)O)NC(=O)CCC(N)C(=O)O (stereo unspecified)
GI50 (LOX IMVI): 0.658 µM (active) | GI50 (CCRF-CEM): 1.02 µM (active) | GI50 (ACHN): 653 µM (inactive) | GI50 (TK-10): 655 µM (inactive) | GI50 (DMS-273): 0.75 µM (active) | GI50 (SR): 0.644 µM (active) | GI50 (RXF 393): 498 µM (inactive) | GI50 (DMS-114): 0.968 µM (active) | GI50 (SK-MEL-2): 378 µM (inactive) | GI50 (RPMI-8226): 908 µM (inactive) | GI50 (HT-29): 0.891 µM (active) | GI50 (HL-60): 659 µM (inactive) | GI50 (COLO 205): 0.735 µM (active) | GI50 (SK-OV-3): 684 µM (inactive) | GI50 (HCT-15): > 1000 µM | GI50 (DLD-1): 0.656 µM (active) | GI50 (HOP-92): 348 µM (inactive) | GI50 (SK-MEL-28): 927 µM (inactive) | GI50 (HCT-116): 1.75 µM (inactive) | GI50 (SW-620): > 1000 µM (inactive) | GI50 (HOP-18): 462 µM (inactive) | GI50 (OVCAR-5): 436 µM (inactive)

O=C(Nc1ccc(C(F)(F)F)cc1[N+](=O)[O-])C(=O)C(C(=O)c1ccc2ccccc2c1)C1OC(=O)c2ccccc21 (stereo unspecified)
GI50 (LOX IMVI): 6.38 µM (inactive) | GI50 (LXFL 529): 5.18 µM (inactive) | GI50 (CCRF-CEM): 3.7 µM (inactive) | GI50 (ACHN): 13.3 µM (inactive) | GI50 (UO-31): 13.8 µM (inactive) | GI50 (TK-10): 18.5 µM (inactive) | GI50 (NCI-H522): 7.11 µM (inactive) | GI50 (SR): 2.81 µM (inactive) | GI50 (UACC-257): 10.1 µM (inactive) | GI50 (RXF 393): 2.94 µM (inactive) | GI50 (DMS-114): 8.71 µM (inactive) | GI50 (SK-MEL-2): 13 µM (inactive) | GI50 (RPMI-8226): 4.11 µM (inactive) | GI50 (NCI-H460): 3.81 µM (inactive) | GI50 (KM-20L2): 20.6 µM (inactive) | GI50 (MOLT-4): 2.26 µM (inactive) | GI50 (SNB-19): 8.51 µM (inactive) | GI50 (OVCAR-4): 20.6 µM (inactive) | GI50 (SK-MEL-5): 6.76 µM (inactive) | GI50 (HT-29): 9.08 µM (inactive) | GI50 (SNB-75): 6.97 µM (inactive) | GI50 (U-251): 4.41 µM (inactive) | GI50 (NCI-H226): 0.681 µM (active) | GI50 (OVCAR-8): 5.07 µM (inactive) | GI50 (HL-60): 8.28 µM (inactive) | GI50 (COLO 205): 8.75 µM (inactive) | GI50 (786-0): 5.56 µM (inactive) | GI50 (SK-OV-3): 26.5 µM (inactive) | GI50 (K562): 5.57 µM (inactive) | GI50 (HCT-15): 8.81 µM | GI50 (EKVX): 3.32 µM (inactive) | GI50 (M14): 13.6 µM (inactive) | GI50 (DLD-1): 6.9 µM (inactive) | GI50 (SF-268): 4.16 µM (inactive) | GI50 (IGROV-1): 19.5 µM (inactive) | GI50 (A498): 4.09 µM (inactive) | GI50 (SN12C): 12.9 µM (inactive) | GI50 (A549): 8.51 µM (inactive) | GI50 (SNB-78): 10.1 µM (inactive) | GI50 (HOP-92): 0.34 µM (active) | GI50 (OVCAR-3): 12.8 µM (inactive) | GI50 (SK-MEL-28): 3.63 µM (inactive) | GI50 (HCT-116): 4.36 µM (inactive) | GI50 (KM12): 11.9 µM (inactive) | GI50 (HOP-62): 5.74 µM (inactive) | GI50 (SF-539): 1.63 µM (inactive) | GI50 (SF-295): 4.85 µM (inactive) | GI50 (HCC 2998): 5.89 µM (inactive) | GI50 (UACC-62): 5.6 µM (inactive) | GI50 (SW-620): 4.78 µM (inactive) | GI50 (NCI-H23): 5.31 µM (inactive) | GI50 (M19-MEL): 8.89 µM (inactive) | GI50 (CAKI-1): 8.26 µM (inactive) | GI50 (OVCAR-5): 13.3 µM (inactive) | GI50 (Malme-3M): 11.6 µM (inactive)
